Results on one compound are retold here after patent publication US20070142457A1, “Crystalline forms of docetaxel and processes for their preparation” (priority 2005, published 2007).

Each structure is given as a SMILES string.

A short description of the data set: solubility compared with docetaxel trihydrate. It counts as physicochemical. Particulars: relative to docetaxel trihydrate; statement in words, no method or figures given.

Consider `CC(=O)O[C@@]12CO[C@@H]1C[C@H](O)[C@@]1(C)C(=O)[C@H](O)C3=C(C)[C@@H](OC(=O)[C@H](O)[C@@H](NC(=O)OC(C)(C)C)c4ccccc4)C[C@@](O)([C@@H](OC(=O)c4ccccc4)[C@H]21)C3(C)C` [docetaxel polymorph of the invention, docetaxel], for which the solubility entry was “greater solubility than docetaxel trihydrate”.
